Measurements taken from US20100226853A1 (priority 2007, published 2010).

Legend:
B6D2F1 mice = assay: Acute toxicity in mice; type: in vivo; conditions: for toxicity in mice: 0.1 mg/kg intravenously, single dose, 14 days observation
Description: Each group contained three mice. […] There were five males and five females in either control or treatment group. […] Mice were sent for pathology, including complete blood cell count, complete chemistry panel and complete necropsy. Two intact male mice and two intact female mice were also sent and used as references.

FLT3 = biological target: T1, FLT3 (Homo sapiens, UniProt P36888); assay: QuickScout ELISA kinase panel; type: biochemical; conditions: Compound 5 at 10 nM
T1 construct: purchased Carna Biosciences (Kobe, Japan), QuickScout service
Description: (§1) . […] An ELISA-based assay was used in which the phosphorylation of an oligopeptide substrate was detected by an HRP-conjugated anti-p-Tyr (PY20) probe. […]. The data appears in Table 2 in Example 3.

EphA2 = biological target: T2, EphA2 (Homo sapiens, UniProt P29317); assay: QuickScout ELISA kinase panel; type: biochemical; conditions: Compound 5 at 10 nM
T2 construct: purchased Carna Biosciences (QuickScout service)
Description: as §1

EphB4 = biological target: T3, EphB4 (Homo sapiens, UniProt P54760); assay: QuickScout ELISA kinase panel; type: biochemical; conditions: Compound 5 at 10 nM
T3 construct: purchased Carna Biosciences (QuickScout service)
Description: as §1

ACK = biological target: T4, ACK (Homo sapiens, UniProt Q07912); assay: QuickScout ELISA kinase panel; type: biochemical; conditions: Compound 5 at 10 nM
T4 construct: purchased Carna Biosciences (QuickScout service)
Description: as §1

JAK3 = biological target: T5, JAK3 (Homo sapiens, UniProt P52333); assay: QuickScout ELISA kinase panel; type: biochemical; conditions: Compound 5 at 10 nM
T5 construct: purchased Carna Biosciences (QuickScout service)
Description: as §1

TYRO3 = biological target: T6, TYRO3 (Homo sapiens, UniProt Q06418); assay: QuickScout ELISA kinase panel; type: biochemical; conditions: Compound 5 at 10 nM
T6 construct: purchased Carna Biosciences (QuickScout service)
Description: as §1

TIE2 = biological target: T7, TIE2 (Homo sapiens, UniProt Q02763); assay: QuickScout ELISA kinase panel; type: biochemical; conditions: Compound 5 at 10 nM; negative = enhanced phosphorylation
T7 construct: purchased Carna Biosciences (Kobe, Japan), QuickScout service
Description: (§2) An ELISA-based assay was used in which the phosphorylation of an oligopeptide substrate was detected by an HRP-conjugated anti-p-Tyr (PY20) probe.

IGF1R = biological target: T8, IGF1R (Homo sapiens, UniProt P08069); assay: QuickScout ELISA kinase panel; type: biochemical; conditions: Compound 5 at 10 nM
T8 construct: purchased Carna Biosciences (QuickScout service)
Description: as §2

KDR = biological target: T9, KDR (Homo sapiens, UniProt P35968); assay: QuickScout ELISA kinase panel; type: biochemical; conditions: Compound 5 at 10 nM; negative = enhanced phosphorylation
T9 construct: purchased Carna Biosciences (Kobe, Japan), QuickScout service
Description: as §2

EGFR = biological target: T10, EGFR (Homo sapiens, UniProt P00533); assay: QuickScout ELISA kinase panel; type: biochemical; conditions: Compound 5 at 10 nM
T10 construct: purchased Carna Biosciences (QuickScout service)
Description: as §2

TRKA = biological target: T11, TRKA (Homo sapiens, UniProt P04629); assay: QuickScout ELISA kinase panel; type: biochemical; conditions: Compound 5 at 10 nM; negative = enhanced phosphorylation
T11 construct: purchased Carna Biosciences (Kobe, Japan), QuickScout service
Description: as §2

SYK = biological target: T12, SYK (Homo sapiens, UniProt P43405); assay: QuickScout ELISA kinase panel; type: biochemical; conditions: read-out: % Inhibition of Kinase Activity, SYK
T12 construct: purchased Carna Biosciences (Kobe, Japan), QuickScout service
Description: as §2

KIT = biological target: T13, KIT (Homo sapiens, UniProt P10721); assay: QuickScout ELISA kinase panel; type: biochemical
T13 construct: purchased Carna Biosciences (Kobe, Japan), QuickScout service
Description: as §2

FGFR1 = biological target: T14, FGFR1 (Homo sapiens, UniProt P11362); assay: QuickScout ELISA kinase panel; type: biochemical; conditions: Compound 5 at 10 nM
T14 construct: purchased Carna Biosciences (QuickScout service)
Description: as §2

FAK = biological target: T15, FAK (Homo sapiens, UniProt Q05397); assay: QuickScout ELISA kinase panel; type: biochemical; conditions: read-out: % Inhibition of Kinase Activity, FAK
T15 construct: purchased Carna Biosciences (QuickScout service)
Description: as §2

[1] = 0.1 mg/kg i.v., 14 days, average, same in control group

T13 sequence (P10721 26-976): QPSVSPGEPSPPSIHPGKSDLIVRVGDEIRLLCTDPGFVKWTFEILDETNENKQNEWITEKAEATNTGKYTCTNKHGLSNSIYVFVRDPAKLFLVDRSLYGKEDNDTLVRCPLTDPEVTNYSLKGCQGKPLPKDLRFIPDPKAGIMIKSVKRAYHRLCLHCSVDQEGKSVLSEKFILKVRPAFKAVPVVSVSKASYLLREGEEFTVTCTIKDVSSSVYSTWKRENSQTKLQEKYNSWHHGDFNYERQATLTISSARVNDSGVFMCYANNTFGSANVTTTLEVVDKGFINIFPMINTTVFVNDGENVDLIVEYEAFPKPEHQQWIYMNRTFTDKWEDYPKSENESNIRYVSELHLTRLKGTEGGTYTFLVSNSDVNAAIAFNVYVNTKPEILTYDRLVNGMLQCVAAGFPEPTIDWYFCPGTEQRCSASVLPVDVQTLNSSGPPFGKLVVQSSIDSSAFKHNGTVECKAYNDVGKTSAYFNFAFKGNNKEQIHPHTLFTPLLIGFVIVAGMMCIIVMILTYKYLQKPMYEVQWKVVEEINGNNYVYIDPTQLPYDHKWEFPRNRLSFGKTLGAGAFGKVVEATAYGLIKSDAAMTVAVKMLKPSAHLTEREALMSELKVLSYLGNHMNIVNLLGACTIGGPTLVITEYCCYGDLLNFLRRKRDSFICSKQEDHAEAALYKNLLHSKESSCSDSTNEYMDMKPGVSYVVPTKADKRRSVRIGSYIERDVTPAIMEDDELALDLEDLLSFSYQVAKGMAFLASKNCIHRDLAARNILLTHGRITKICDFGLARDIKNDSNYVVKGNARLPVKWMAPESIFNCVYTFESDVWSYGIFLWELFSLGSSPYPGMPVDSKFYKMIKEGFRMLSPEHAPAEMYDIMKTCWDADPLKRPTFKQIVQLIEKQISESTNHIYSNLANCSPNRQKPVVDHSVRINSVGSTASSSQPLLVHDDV
T6 sequence (Q06418 41-890): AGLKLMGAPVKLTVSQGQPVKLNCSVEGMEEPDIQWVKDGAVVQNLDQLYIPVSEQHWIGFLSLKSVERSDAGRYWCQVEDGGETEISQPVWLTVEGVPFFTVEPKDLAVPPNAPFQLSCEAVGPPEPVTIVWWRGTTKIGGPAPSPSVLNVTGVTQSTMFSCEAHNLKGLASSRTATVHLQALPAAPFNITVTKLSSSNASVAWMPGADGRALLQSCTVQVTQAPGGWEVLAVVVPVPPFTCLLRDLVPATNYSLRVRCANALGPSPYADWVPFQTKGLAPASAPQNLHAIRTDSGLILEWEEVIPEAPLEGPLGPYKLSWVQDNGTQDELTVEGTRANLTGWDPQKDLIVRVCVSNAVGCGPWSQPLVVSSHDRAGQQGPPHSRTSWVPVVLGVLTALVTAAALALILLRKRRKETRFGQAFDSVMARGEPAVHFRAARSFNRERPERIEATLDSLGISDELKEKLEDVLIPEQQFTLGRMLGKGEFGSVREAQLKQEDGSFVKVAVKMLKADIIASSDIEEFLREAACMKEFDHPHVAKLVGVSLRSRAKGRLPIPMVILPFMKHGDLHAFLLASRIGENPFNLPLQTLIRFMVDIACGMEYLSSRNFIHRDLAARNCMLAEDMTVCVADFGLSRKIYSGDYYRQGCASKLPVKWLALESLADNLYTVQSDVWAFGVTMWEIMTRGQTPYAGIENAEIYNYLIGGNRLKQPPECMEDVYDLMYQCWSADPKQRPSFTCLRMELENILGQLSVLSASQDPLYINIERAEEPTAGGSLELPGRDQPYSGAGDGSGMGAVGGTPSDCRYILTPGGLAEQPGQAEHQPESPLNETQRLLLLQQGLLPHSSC
T10 sequence (P00533 25-1210): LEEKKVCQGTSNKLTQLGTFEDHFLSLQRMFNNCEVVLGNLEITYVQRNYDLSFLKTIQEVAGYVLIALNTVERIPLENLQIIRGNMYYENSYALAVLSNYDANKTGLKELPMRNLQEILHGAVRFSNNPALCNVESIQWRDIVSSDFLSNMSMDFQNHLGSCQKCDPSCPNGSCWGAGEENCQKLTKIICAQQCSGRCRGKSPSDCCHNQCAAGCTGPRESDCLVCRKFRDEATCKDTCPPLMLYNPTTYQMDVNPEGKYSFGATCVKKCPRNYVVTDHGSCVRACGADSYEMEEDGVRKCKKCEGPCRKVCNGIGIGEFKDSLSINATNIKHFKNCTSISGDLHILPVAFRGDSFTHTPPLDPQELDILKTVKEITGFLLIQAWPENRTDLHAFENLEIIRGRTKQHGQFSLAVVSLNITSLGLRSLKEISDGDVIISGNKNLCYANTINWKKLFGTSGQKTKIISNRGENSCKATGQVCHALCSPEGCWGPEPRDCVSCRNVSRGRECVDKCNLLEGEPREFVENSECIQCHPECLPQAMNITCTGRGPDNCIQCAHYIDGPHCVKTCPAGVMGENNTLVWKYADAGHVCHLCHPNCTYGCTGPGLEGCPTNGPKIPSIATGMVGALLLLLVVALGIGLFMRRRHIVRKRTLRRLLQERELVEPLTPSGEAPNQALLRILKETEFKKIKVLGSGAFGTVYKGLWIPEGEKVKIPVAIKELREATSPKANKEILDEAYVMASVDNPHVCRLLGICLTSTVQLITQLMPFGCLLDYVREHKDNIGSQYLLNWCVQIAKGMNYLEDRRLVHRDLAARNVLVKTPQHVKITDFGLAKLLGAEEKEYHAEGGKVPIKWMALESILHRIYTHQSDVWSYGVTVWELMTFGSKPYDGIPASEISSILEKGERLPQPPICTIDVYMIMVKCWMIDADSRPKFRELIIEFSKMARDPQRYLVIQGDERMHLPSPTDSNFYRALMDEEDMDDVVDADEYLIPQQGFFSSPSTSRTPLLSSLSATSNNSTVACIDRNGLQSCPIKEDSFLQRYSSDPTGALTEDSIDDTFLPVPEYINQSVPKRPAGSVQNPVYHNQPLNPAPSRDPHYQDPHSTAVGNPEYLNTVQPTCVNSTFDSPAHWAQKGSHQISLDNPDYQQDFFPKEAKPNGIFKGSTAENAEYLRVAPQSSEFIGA
T8 sequence (P08069 31-1367): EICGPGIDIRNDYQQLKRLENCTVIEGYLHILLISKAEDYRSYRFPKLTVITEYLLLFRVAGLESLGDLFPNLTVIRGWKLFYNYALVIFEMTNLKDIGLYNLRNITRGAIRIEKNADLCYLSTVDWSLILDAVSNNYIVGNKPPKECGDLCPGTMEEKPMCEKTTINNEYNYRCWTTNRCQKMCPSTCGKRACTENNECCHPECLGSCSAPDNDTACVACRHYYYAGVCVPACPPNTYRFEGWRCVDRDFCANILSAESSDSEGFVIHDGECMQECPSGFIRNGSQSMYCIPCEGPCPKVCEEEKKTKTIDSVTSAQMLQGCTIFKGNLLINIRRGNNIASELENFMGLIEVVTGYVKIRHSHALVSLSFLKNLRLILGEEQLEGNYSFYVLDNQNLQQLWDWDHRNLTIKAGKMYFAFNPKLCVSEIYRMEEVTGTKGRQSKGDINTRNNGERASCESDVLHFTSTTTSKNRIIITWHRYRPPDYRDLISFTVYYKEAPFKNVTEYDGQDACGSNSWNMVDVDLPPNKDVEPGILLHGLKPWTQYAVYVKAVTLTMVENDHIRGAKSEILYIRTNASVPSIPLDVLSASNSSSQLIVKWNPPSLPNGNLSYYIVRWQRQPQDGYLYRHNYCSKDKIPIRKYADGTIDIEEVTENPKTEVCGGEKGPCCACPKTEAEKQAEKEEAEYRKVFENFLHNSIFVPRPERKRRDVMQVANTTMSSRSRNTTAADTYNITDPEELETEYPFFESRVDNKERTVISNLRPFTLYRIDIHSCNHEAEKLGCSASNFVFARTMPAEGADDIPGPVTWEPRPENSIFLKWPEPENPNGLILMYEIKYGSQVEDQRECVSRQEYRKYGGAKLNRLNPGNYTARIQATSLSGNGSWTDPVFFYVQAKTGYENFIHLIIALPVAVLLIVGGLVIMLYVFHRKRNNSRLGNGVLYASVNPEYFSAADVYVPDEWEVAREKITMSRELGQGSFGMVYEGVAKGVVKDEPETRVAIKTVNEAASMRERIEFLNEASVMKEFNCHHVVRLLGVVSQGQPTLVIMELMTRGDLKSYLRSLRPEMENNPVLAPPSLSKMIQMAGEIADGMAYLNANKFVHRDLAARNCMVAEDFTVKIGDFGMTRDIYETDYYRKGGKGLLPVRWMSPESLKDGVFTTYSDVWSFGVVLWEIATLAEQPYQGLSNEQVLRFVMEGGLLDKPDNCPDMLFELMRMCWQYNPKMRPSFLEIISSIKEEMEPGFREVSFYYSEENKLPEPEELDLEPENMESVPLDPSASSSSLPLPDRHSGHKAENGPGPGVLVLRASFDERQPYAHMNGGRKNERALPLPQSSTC
T11 sequence (P04629 33-796): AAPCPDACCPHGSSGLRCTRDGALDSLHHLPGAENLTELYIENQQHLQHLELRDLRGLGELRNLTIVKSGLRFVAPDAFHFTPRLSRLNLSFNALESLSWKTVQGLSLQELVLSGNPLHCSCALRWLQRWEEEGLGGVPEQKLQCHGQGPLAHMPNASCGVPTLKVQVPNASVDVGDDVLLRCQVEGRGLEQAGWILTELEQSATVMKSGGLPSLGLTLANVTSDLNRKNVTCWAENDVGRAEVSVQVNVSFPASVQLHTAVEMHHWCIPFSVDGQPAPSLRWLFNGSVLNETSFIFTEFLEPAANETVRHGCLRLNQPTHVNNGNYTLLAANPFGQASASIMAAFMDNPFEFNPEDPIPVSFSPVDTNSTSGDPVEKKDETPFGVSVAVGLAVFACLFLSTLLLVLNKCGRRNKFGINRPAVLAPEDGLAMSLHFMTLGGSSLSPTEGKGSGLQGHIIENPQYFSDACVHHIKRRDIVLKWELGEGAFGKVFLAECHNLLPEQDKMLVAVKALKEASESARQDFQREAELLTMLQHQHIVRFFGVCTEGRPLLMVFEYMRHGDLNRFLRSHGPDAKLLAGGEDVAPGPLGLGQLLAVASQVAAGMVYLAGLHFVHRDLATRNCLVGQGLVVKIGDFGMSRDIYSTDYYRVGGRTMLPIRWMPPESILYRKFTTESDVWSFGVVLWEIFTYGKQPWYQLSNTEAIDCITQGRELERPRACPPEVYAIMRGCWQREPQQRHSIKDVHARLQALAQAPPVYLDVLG

In the case of Cc1nc(Nc2ncc(C(=O)Nc3c(C)cccc3Cl)s2)cc(N2CCN(CCF)CC2)n1 [Compound 5, N-(2-Chloro-6-methylphenyl)-2-(6-(4-(2-fluoroethyl)piperazin-1-yl)-2-methylpyrimidin-4-ylamino)thiazole-5-carboxamide], the “body weight gain, female mice” value (B6D2F1 mice; [1]) is reported as 0.5 g, the “body weight gain, male mice” value (B6D2F1 mice; [1]) is reported as 1.8 g and the toxicity in mice (B6D2F1 mice) is reported as “has not shown toxicity”. The toxicity in mice (B6D2F1 mice; listed as fluoro derivative 5) was “safe and nontoxic”, the inhibition at 0.01 µM (FLT3) was 0.3% and the inhibition at 0.01 µM (EphA2) was 98.1%. For the same compound, the inhibition at 0.01 µM (EphB4) was 97%, the inhibition at 0.01 µM (ACK) was 83.1% and the inhibition at 0.01 µM (JAK3) was 16%. The inhibition at 0.01 µM (TYRO3) was 23.1%, the inhibition at 0.01 µM (TIE2) was -51.7% and the inhibition at 0.01 µM (IGF1R) was 5.9%. For the same compound, the inhibition at 0.01 µM (KDR) was -5.6%, the inhibition at 0.01 µM (EGFR) was 27.2% and the inhibition at 0.01 µM (TRKA) was -0.9%. For the same compound, the inhibition at 0.01 µM (SYK) was 4.5%, the IC50 (KIT) was < 2 nM and the inhibition at 0.01 µM (KIT; Compound 5 at 10 nM) was > 97%. For the same compound, the “% Inhibition of Kinase Activity, KIT” value (KIT; Compound 5 at 10 nM, 0.01 µM) was 98.7%, the inhibition at 0.01 µM (FGFR1) was 20.4% and the inhibition at 0.01 µM (FAK) was -18.3%.
